Results published in PubChem BioAssay (NCI).
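Test compounds were applied to cells in 96-well plates for 48 hours at 5 doses. TGI marks complete inhibition of growth.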

Tests used:
Assay in all cases: NCI tumour cell line growth inhibition, 48 h
HCT-116 colon = tested on: HCT-116 colon
OVCAR-3 ovarian = tested on: OVCAR-3 ovarian
PC-3 prostate = tested on: PC-3 prostate
OVCAR-8 ovarian = tested on: OVCAR-8 ovarian
786-0 renal = tested on: 786-0 renal
SW-620 colon = tested on: SW-620 colon
LOX IMVI melanoma = tested on: LOX IMVI melanoma
SF-268 CNS = tested on: SF-268 CNS
EKVX NSCLC = tested on: EKVX NSCLC
MDA-MB-435 = tested on: MDA-MB-435
HT29 colon = tested on: HT29 colon
U251 CNS = tested on: U251 CNS
CAKI-1 renal = tested on: CAKI-1 renal
HL-60(TB) leukemia = tested on: HL-60(TB) leukemia
K-562 leukemia = tested on: K-562 leukemia
SN12C renal = tested on: SN12C renal
MDA-MB-231 breast = tested on: MDA-MB-231 breast
SK-MEL-28 melanoma = tested on: SK-MEL-28 melanoma
RPMI-8226 leukemia = tested on: RPMI-8226 leukemia
SNB-19 CNS = tested on: SNB-19 CNS
A549 NSCLC = tested on: A549 NSCLC
CCRF-CEM leukemia = tested on: CCRF-CEM leukemia
SF-295 CNS = tested on: SF-295 CNS
NCI-H23 lung = tested on: NCI-H23 lung
HCC-2998 colon = tested on: HCC-2998 colon
NCI-H460 lung = tested on: NCI-H460 lung
KM12 colon = tested on: KM12 colon
MALME-3M melanoma = tested on: MALME-3M melanoma
SNB-75 CNS = tested on: SNB-75 CNS
MOLT-4 leukemia = tested on: MOLT-4 leukemia
ACHN renal = tested on: ACHN renal
SK-MEL-2 melanoma = tested on: SK-MEL-2 melanoma
MCF7 breast = tested on: MCF7 breast
M14 melanoma = tested on: M14 melanoma
UACC-257 melanoma = tested on: UACC-257 melanoma
NCI/ADR-RES ovarian = tested on: NCI/ADR-RES ovarian
OVCAR-5 ovarian = tested on: OVCAR-5 ovarian
UO-31 renal = tested on: UO-31 renal
HS 578T breast = tested on: HS 578T breast
DU-145 prostate = tested on: DU-145 prostate
IGROV1 ovarian = tested on: IGROV1 ovarian
HCT-15 colon = tested on: HCT-15 colon
NCI-H522 lung = tested on: NCI-H522 lung
SK-MEL-5 melanoma = tested on: SK-MEL-5 melanoma
A498 renal = tested on: A498 renal
SR leukemia = tested on: SR leukemia
RXF 393 renal = tested on: RXF 393 renal
T-47D breast = tested on: T-47D breast
HOP-62 NSCLC = tested on: HOP-62 NSCLC
SK-OV-3 ovarian = tested on: SK-OV-3 ovarian
MDA-N = tested on: MDA-N
BT-549 breast = tested on: BT-549 breast
HOP-92 NSCLC = tested on: HOP-92 NSCLC
NCI-H226 lung = tested on: NCI-H226 lung
UACC-62 melanoma = tested on: UACC-62 melanoma
COLO 205 colon = tested on: COLO 205 colon
TK-10 renal = tested on: TK-10 renal
OVCAR-4 ovarian = tested on: OVCAR-4 ovarian
SF-539 CNS = tested on: SF-539 CNS

CC1(C)[C@H]2Cc3cc(-c4cc5c(cn4)[C@@H]4C[C@H]([C@@H]5[C@@H]5c6cc(-c7cc8c(cn7)[C@@H]7C[C@H](C8)C7(C)C)ncc6[C@@H]6C[C@H]5C6(C)C)C4(C)C)ncc3[C@@H]1C2
TGI (HCT-116 colon): > 100 µM
TGI (OVCAR-3 ovarian): > 100 µM
TGI (PC-3 prostate): > 100 µM
TGI (OVCAR-8 ovarian): > 100 µM
TGI (786-0 renal): > 100 µM
TGI (SW-620 colon): > 100 µM
TGI (LOX IMVI melanoma): > 100 µM
TGI (SF-268 CNS): > 100 µM
TGI (EKVX NSCLC): > 100 µM
TGI (MDA-MB-435): > 100 µM
TGI (HT29 colon): > 100 µM
TGI (U251 CNS): > 100 µM
TGI (CAKI-1 renal): > 100 µM
TGI (HL-60(TB) leukemia): > 100 µM
TGI (K-562 leukemia): > 100 µM
TGI (SN12C renal): > 100 µM
TGI (MDA-MB-231 breast): > 100 µM
TGI (SK-MEL-28 melanoma): > 100 µM
TGI (RPMI-8226 leukemia): > 100 µM
TGI (SNB-19 CNS): > 100 µM
TGI (A549 NSCLC): > 100 µM
TGI (CCRF-CEM leukemia): > 100 µM
TGI (SF-295 CNS): > 100 µM
TGI (NCI-H23 lung): > 100 µM
TGI (HCC-2998 colon): > 100 µM
TGI (NCI-H460 lung): > 100 µM
TGI (KM12 colon): > 100 µM
TGI (MALME-3M melanoma): > 100 µM
TGI (SNB-75 CNS): > 100 µM
TGI (MOLT-4 leukemia): > 100 µM
TGI (ACHN renal): > 100 µM
TGI (SK-MEL-2 melanoma): > 100 µM
TGI (MCF7 breast): > 100 µM
TGI (M14 melanoma): > 100 µM
TGI (UACC-257 melanoma): > 100 µM
TGI (NCI/ADR-RES ovarian): > 100 µM
TGI (OVCAR-5 ovarian): > 100 µM
TGI (UO-31 renal): > 100 µM
TGI (HS 578T breast): > 100 µM
TGI (DU-145 prostate): > 100 µM
TGI (IGROV1 ovarian): > 100 µM
TGI (HCT-15 colon): > 100 µM
TGI (NCI-H522 lung): > 100 µM
TGI (SK-MEL-5 melanoma): > 100 µM
TGI (A498 renal): > 100 µM
TGI (SR leukemia): > 100 µM
TGI (RXF 393 renal): > 100 µM
TGI (T-47D breast): > 100 µM
TGI (HOP-62 NSCLC): > 100 µM
TGI (SK-OV-3 ovarian): > 100 µM
TGI (MDA-N): > 100 µM
TGI (BT-549 breast): > 100 µM
TGI (HOP-92 NSCLC): > 100 µM
TGI (NCI-H226 lung): > 100 µM
TGI (UACC-62 melanoma): > 100 µM
TGI (COLO 205 colon): > 100 µM

COc1ccc(N2C(=O)CC(c3c[nH]c4ncccc34)C2=O)cc1 (stereo not given)
TGI (HCT-116 colon): 45.8 µM
TGI (OVCAR-3 ovarian): 36.2 µM
TGI (TK-10 renal): 19.5 µM
TGI (PC-3 prostate): > 31.6 µM
TGI (OVCAR-8 ovarian): 42.4 µM
TGI (786-0 renal): 49.7 µM
TGI (SW-620 colon): 40.7 µM
TGI (LOX IMVI melanoma): > 100 µM
TGI (SF-268 CNS): > 100 µM
TGI (EKVX NSCLC): > 75.6 µM
TGI (MDA-MB-435): 19.4 µM
TGI (OVCAR-4 ovarian): 47 µM
TGI (HT29 colon): 40.5 µM
TGI (U251 CNS): > 100 µM
TGI (CAKI-1 renal): 37.2 µM
TGI (HL-60(TB) leukemia): > 37.4 µM
TGI (K-562 leukemia): 24.9 µM
TGI (SN12C renal): 35.2 µM
TGI (MDA-MB-231 breast): 40.3 µM
TGI (SK-MEL-28 melanoma): > 58.3 µM
TGI (RPMI-8226 leukemia): > 100 µM
TGI (SNB-19 CNS): > 100 µM
TGI (A549 NSCLC): > 100 µM
TGI (CCRF-CEM leukemia): 16.8 µM
TGI (SF-295 CNS): > 100 µM
TGI (NCI-H23 lung): > 58.4 µM
TGI (HCC-2998 colon): > 100 µM
TGI (NCI-H460 lung): > 100 µM
TGI (KM12 colon): > 100 µM
TGI (MALME-3M melanoma): 40.5 µM
TGI (SNB-75 CNS): > 100 µM
TGI (MOLT-4 leukemia): > 41 µM
TGI (ACHN renal): 43.6 µM
TGI (SK-MEL-2 melanoma): > 100 µM
TGI (MCF7 breast): > 76.9 µM
TGI (M14 melanoma): 44.9 µM
TGI (UACC-257 melanoma): 38.5 µM
TGI (NCI/ADR-RES ovarian): > 79.1 µM
TGI (OVCAR-5 ovarian): > 100 µM
TGI (UO-31 renal): > 100 µM
TGI (HS 578T breast): > 100 µM
TGI (DU-145 prostate): > 100 µM
TGI (IGROV1 ovarian): 44.6 µM
TGI (HCT-15 colon): 59.3 µM
TGI (NCI-H522 lung): 24.2 µM
TGI (SK-MEL-5 melanoma): > 100 µM
TGI (A498 renal): > 100 µM
TGI (SR leukemia): > 20 µM
TGI (SF-539 CNS): > 65.3 µM
TGI (RXF 393 renal): 42.5 µM
TGI (T-47D breast): 50.4 µM
TGI (HOP-62 NSCLC): > 100 µM
TGI (SK-OV-3 ovarian): > 100 µM
TGI (MDA-N): 20.1 µM
TGI (BT-549 breast): 37.2 µM
TGI (HOP-92 NSCLC): 36 µM
TGI (NCI-H226 lung): > 100 µM
TGI (UACC-62 melanoma): > 96.4 µM
TGI (COLO 205 colon): 36.5 µM
